Starred links: 1 amine or outer side, 2 acyl side, 3 side chain; linkers in the order of their positions; H or OH if unused. Non-standard residues stand in square brackets, D forms with d. Residues, ends and D or L forms follow the SMILES beside them. *: point of attachment. DTPA = O=C(O)CN(CCN(CC(=O)O)CC(=O)O)CCN(CC(=O)O)CC(=O)*; Phe(4-Cl) = N[C@@H](Cc1ccc(Cl)cc1)C(=O)O; X4 = CC(C)(S)CNCCN(CCCCC(=O)*)CC(C)(C)S; 2Nal = N[C@@H](Cc1ccc2ccccc2c1)C(=O)O; d2Nal = N[C@H](Cc1ccc2ccccc2c1)C(=O)O; εLys = N[C@@H](CCCCN[*:1])C(=O)[*:2]; Acm = CC(=O)NC*
What follows are compounds tested against T1, somatostatin receptor (Rattus norvegicus, UniProt P30680) (assay: Inhibition of binding of [125I-Tyr11]somatostatin-14 to AR42J rat pancreatic tumor cell membranes). Settings: inhibition constant; displacement of 0.5 nM [125I-Tyr11]somatostatin-14 from AR42J cell membranes, 25 min at 30° C; free peptides and [Re=O]-complexed peptides.
T1 construct: endogenous in cells; host or cells: AR42J rat pancreatic tumor cell line (membrane preparation)
Description: Inhibition of Binding of [^125 I-Tyr^11 ]somatostatin-14 to AR42J Rat Pancreatic Tumor Cell Membranes
The rat pancreatic tumor cell line AR42J which expresses the somatostatin receptor was cultured in Dulbecco's minimal essential media (DMEM) supplemented with 10% fetal bovine serum (FBS) and 8 mM glutamine in a humdified 5% CO2 atmosphere at 37° C. in T-flasks. Harvested cells were homogenized in cold 50 mM Tris-HCl buffer (pH 7.4) and the homogenate then centrifuged at 39,000 g for 10 min at 4° C. Pellets were washed once with buffer and then resuspended in an ice-cold solution of 10 mM Tris-HCl (pH 7.4). Equal aliquots of this cell membrane preparation were incubated with [^125 I-Tyr^11 ]somatostatin-14 (at a final concentration of 0.5nM and 750,000 cpm/mL, at a specific activity of 2000 Ci/mmol, Amersham, Arlington Heights, Ill.) and peptide at a final concentration of from 10^-11 M to 10^-6 M in a solution of 50 mM HEPES (pH 7.4) containing 1% bovine serum albumin (BSA), 5 mM MgCl2, Trasylol (200,000 International Units), bacitracin (0.02 mg/mL) and phenylmethylsulfonylfluoride (0.02 mg/mL) for 25 min at 30° C. Using a filtration manifold, this mixture was filtered through a polyethyleneimine-washed GC/F filter (Whatman, Maidstone, England), and the residue remaining on the filter wastled thrice with 5 mL cold HEPES buffer. The filter and a sample of the filter washings were then counted in a gamma counter. To assess non-specific binding, the assay was performed in the presence of unlabeled somatostatin-14 at 200 nM. Data analysis including Hill plots of the data provided inhibition constants (see Bylund & Yamamura, "Methods of receptor binding", in Methods in Neurotransmitter Receptor Analysis, Yamamura et al., eds., Raven Press: New York, 1990).

T1 sequence (P30680 whole entry): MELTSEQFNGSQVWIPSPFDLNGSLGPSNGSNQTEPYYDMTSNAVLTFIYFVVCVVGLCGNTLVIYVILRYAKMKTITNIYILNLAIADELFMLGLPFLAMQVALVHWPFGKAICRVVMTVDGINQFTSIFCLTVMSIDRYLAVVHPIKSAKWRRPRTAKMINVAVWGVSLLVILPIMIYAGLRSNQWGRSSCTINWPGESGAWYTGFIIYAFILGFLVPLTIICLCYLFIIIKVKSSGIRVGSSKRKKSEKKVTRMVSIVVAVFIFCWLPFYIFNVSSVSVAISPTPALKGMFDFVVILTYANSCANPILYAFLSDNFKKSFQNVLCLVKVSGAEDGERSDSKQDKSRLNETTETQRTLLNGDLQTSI

Row | Compound | Ki
1 | Ac.CGCFD.Cpa.YWD KTFT.amide | 4.1 nM
2 | FD.Cpa.YWD KTFT(ε-K)GC.amide | 0.36 nM
3 | CC(=O)NCSC[C@H](NC(=O)CNC(=O)[C@H](CSCNC(C)=O)NC(=O)CNC(=O)CNC(=O)CNC(=O)[C@@H](NC(=O)[C@H](Cc1ccccc1)NC(=O)[C@@H](NC(=O)[C@H](CCCCN)NC(=O)[C@@H](Cc1c[nH]c2ccccc12)NC(=O)[C@H](Cc1ccc(O)cc1)NC(=O)[C@H](Cc1ccc(Cl)cc1)NC(=O)[C@H](N)Cc1ccccc1)[C@@H](C)O)[C@@H](C)O)C(N)=O [FD.Cpa.YWD KTFT.GGGCAcm GCAcm.amide] (H-[dF][Phe(4-Cl)]Y[dW]KTFTGGGC(Acm)GC(Acm)-NH2) | 2.4 nM
4 | [DTPA].FD.Cpa.YWD KTFT(ε-K)GC.amide | 0.027 nM
5 | FD.Cpa.YWD K.Abu.Nal.T(ε-K)GC.amide | 3.3 nM
6 | CC(=O)NCSC[C@H](NC(=O)CNC(=O)[C@H](CSCNC(C)=O)NC(=O)[C@@H](NC(=O)[C@H](Cc1ccccc1)NC(=O)[C@@H](NC(=O)[C@H](CCCCN)NC(=O)[C@@H](Cc1c[nH]c2ccccc12)NC(=O)[C@H](Cc1ccc(O)cc1)NC(=O)[C@H](Cc1ccc(Cl)cc1)NC(=O)[C@H](N)Cc1ccccc1)[C@@H](C)O)[C@@H](C)O)C(N)=O [FD.CPa.YWD KTFTCAcm GCAcm.amide, FD.Cpa.YWD KTFTCAcm GCAcm.amide] (H-[dF][Phe(4-Cl)]Y[dW]KTFTC(Acm)GC(Acm)-NH2) | 0.85 nM
7 | CC(=O)N[C@H](Cc1ccccc1)C(=O)N[C@@H](Cc1ccccc1)C(=O)N[C@@H](Cc1ccc(O)cc1)C(=O)N[C@H](Cc1c[nH]c2ccccc12)C(=O)N[C@@H](CCCCN)C(=O)N[C@H](C(=O)N[C@@H](Cc1ccccc1)C(=O)N[C@H](C(=O)NCC(=O)NCC(=O)NCC(=O)NCCCC[C@H](N)C(=O)NCC(=O)N[C@@H](CS)C(N)=O)[C@@H](C)O)[C@@H](C)O [Ac.FD FYWD KTFTGGG(ε-K)GC.amide] (Ac-[dF]FY[dW]KTFTGGG[εLys]GC-NH2) | 8.2 nM
8 | AKCGGGFD FYWD KTFT.amide | 2.9 nM
9 | C[C@@H](O)[C@H](NC(=O)[C@H](Cc1ccccc1)NC(=O)[C@@H](NC(=O)[C@H](CCCCN)NC(=O)[C@@H](Cc1c[nH]c2ccccc12)NC(=O)[C@H](Cc1ccc(O)cc1)NC(=O)[C@H](Cc1ccccc1)NC(=O)[C@@H](Cc1ccccc1)NC(=O)[C@H](CS)NC(=O)CNC(=O)[C@@H](N)CCCCNC(=O)CN(CCN(CCN(CC(=O)O)CC(=O)O)CC(=O)O)CC(=O)O)[C@@H](C)O)C(N)=O [[DTPA].(ε-K)GCFD.FYWD KTFT.amide] (H-K(DTPA)GC[dF]FY[dW]KTFT-NH2) | 3.3 nM
10 | [DTPA].Aca.FD.Cpa.YWD KTFT(ε-K)GC.amide | 8.2 nM
11 | C[C@@H](O)[C@H](NC(=O)[C@H](Cc1ccccc1)NC(=O)[C@@H](NC(=O)[C@H](CCCCN)NC(=O)[C@@H](Cc1c[nH]c2ccccc12)NC(=O)[C@H](Cc1ccc(O)cc1)NC(=O)[C@H](Cc1ccc(Cl)cc1)NC(=O)[C@@H](Cc1ccc2ccccc2c1)NC(=O)CN(CCN(CCN(CC(=O)O)CC(=O)O)CC(=O)O)CC(=O)O)[C@@H](C)O)C(=O)NCCCC[C@H](N)C(=O)NCC(=O)N[C@@H](CS)C(=O)N[C@@H](CCCCN)C(=O)N[C@@H](CCCCN)C(N)=O [[DTPA].D-Nal.Cpa.YWD KTFT(ε-K)GCKK.amide] ({DTPA}-[d2Nal][Phe(4-Cl)]Y[dW]KTFT[εLys]GCKK-NH2) | 1.3 nM
12 | [DTPA].D-Nal.Cpa.YWD KTFT(ε-K)GC.amide | 0.007 nM
13 | Ac.FD FYWD KTFTGGG(ε-K)GC.amide | 8.1 nM
14 | CSC[C@H](NC(=O)[C@@H](NC(=O)[C@H](CCCCN)NC(=O)[C@@H](Cc1c[nH]c2ccccc12)NC(=O)[C@H](Cc1ccc(O)cc1)NC(=O)[C@H](CSC)NC(=O)[C@@H](Cc1ccc2ccccc2c1)NC(=O)[C@@H](N)CCCCNC(=O)CCCCN(CCNCC(C)(C)S)CC(C)(C)S)C(C)C)C(=O)N[C@H](C(N)=O)[C@@H](C)O [K.[BAT].D-Nal.CMe YWD KVCMe T.amide, K(BAT).D-Nal.CMe YWD KVCMe T.amide] (H-K(X4)[d2Nal]C(Me)Y[dW]KVC(Me)T-NH2; N-terminus assumed) | 9.9 nM
15 | C[C@@H](O)[C@H](NC(=O)[C@H](CCCCN)NC(=O)[C@@H](Cc1c[nH]c2ccccc12)NC(=O)[C@H](Cc1ccc(O)cc1)NC(=O)[C@H](Cc1ccc(Cl)cc1)NC(=O)[C@H](N)Cc1ccccc1)C(=O)N[C@@H](CS)C(=O)N[C@@H](Cc1ccc2ccccc2c1)C(N)=O [FD.Cpa.YWD KTC.Nal.amide] (H-[dF][Phe(4-Cl)]Y[dW]KTC[2Nal]-NH2) | 8.2 nM

More lines, in order of falling Ki, values ahead:

Row | Ki | Compound
16 | 6.1 nM | Ac.FD FYWD KTFGGG(ε-K)KC.amide
17 | 4.4 nM | CC(=O)N[C@@H](CS)C(=O)NCC(=O)N[C@@H](CS)C(=O)N[C@H](Cc1ccccc1)C(=O)N[C@@H](Cc1ccc(Cl)cc1)C(=O)N[C@@H](Cc1ccc(O)cc1)C(=O)N[C@H](Cc1c[nH]c2ccccc12)C(=O)N[C@@H](CCCCN)C(=O)N[C@H](C(=O)N[C@@H](Cc1ccccc1)C(=O)N[C@H](C(N)=O)[C@@H](C)O)[C@@H](C)O [Ac.CGCFD.Cpa.YWD KTFT.amide] (Ac-CGC[dF][Phe(4-Cl)]Y[dW]KTFT-NH2)
18 | 1.5 nM | Ac.FD FYWD KTFT(ε-K)GC.amide
19 | 0.97 nM | maGGGFD.Cpa.YWD KTFT.amide
20 | 0.76 nM | AKCGGGFD.Cpa.YWD KTFT.amide
21 | 0.73 nM | CC(=O)NCSC[C@H](NC(C)=O)C(=O)NCC(=O)N[C@@H](CSCNC(C)=O)C(=O)N[C@H](Cc1ccccc1)C(=O)N[C@@H](Cc1ccc(Cl)cc1)C(=O)N[C@@H](Cc1ccc(O)cc1)C(=O)N[C@H](Cc1c[nH]c2ccccc12)C(=O)N[C@@H](CCCCN)C(=O)N[C@H](C(=O)N[C@@H](Cc1ccccc1)C(=O)N[C@H](C(N)=O)[C@@H](C)O)[C@@H](C)O [Ac.CAcm GCAcm FD.CPa.YWD KTFT.amide, Ac.CAcm GCAcm FD.Cpa.YWD KTFT.amide] (Ac-C(Acm)GC(Acm)[dF][Phe(4-Cl)]Y[dW]KTFT-NH2)
22 | 0.37 nM | FD.CPa.YWD KTFTCGC.amide (not fully specified; Re=O complex; FD.CPa.YWD prefix; C-terminal amide)

— US5620675A, “Radioactive peptides” (Diatech, Inc., priority 1993, dated 1997)
